Here are results for 30 molecules from patent US7566718B2, “Amine-linked pyridyl and phenyl substituted piperazine-piperidines with CXCR3 antagonist activity” (Schering Corporation, priority 2005, dated 2009).

The assay concerns the target T1, human CXCR3 (N-delta 4) (Homo sapiens, UniProt P49682).
T1 construct: CD8 leader (N); Flag tag; expressed in transfected cells; membrane preparation
T1 sequence (P49682 5-368 limits assumed): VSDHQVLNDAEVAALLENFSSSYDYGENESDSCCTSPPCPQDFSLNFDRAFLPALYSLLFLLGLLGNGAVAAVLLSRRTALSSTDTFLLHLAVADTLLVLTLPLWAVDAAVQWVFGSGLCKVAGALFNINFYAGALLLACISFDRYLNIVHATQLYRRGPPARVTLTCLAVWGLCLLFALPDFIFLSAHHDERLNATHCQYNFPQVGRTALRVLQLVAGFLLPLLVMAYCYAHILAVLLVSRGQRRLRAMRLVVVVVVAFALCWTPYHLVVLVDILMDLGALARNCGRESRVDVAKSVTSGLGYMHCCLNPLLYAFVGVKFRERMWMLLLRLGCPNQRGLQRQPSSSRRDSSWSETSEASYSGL
Description: Human CXCR3 (N-delta 4) scintillation proximity assay (SPA), [125I] IP-10 binding to Ba/F3-hCXCR3 membranes. As to conditions: IC50 rating; [125I] IP-10 displacement, human CXCR3; read-out: IC50. The procedure, abridged:
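Membranes from Ba/F3 cells expressing Flag-tagged hCXCR3 (N-delta 4), 2 μg/point, precoupled to WGA SPA beads. Binding of 25 pM [125I] IP-10 measured with titrated compounds, 3 hr at room temperature, in HEPES buffer with CaCl2, MgCl2, NaCl and 1.0% BSA; bound tracer read by scintillation counting.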
For orientation: SPA uses beads or plates that emit light when radiolabelled molecules are held near them.

For orientation: IC50 means the concentration that inhibits the measured activity by half.

Take `CC[C@H]1CN(c2cc(N)c([N+](=O)[O-])cc2Cl)CCN1C1CCN(Cc2ccc(Cl)cc2F)CC1` [Compound 220]: the IC50 is over 100 nM. As to `CC[C@H]1CN(c2ncc(Nc3c(NC4CC4)c(=O)c3=O)cc2Cl)CCN1C1CCN([C@@H](C(N)=O)c2ccc(Cl)cc2)CC1` [Compound 167], the IC50 is over 100 nM.

As to `CC[C@H]1CN(c2ncc(NS(C)(=O)=O)cc2Cl)CCN1C1CCN(Cc2ccc(F)cc2)CC1` [Compound 25], the IC50 is 25 to 100 nM. On to `CC[C@H]1CN(c2cc(N)c(N)cc2Cl)CCN1C1CCN(Cc2ccc(Cl)cc2F)CC1` [Compound 226], for which the IC50 was over 100 nM.

Regarding `CC[C@H]1CN(c2ncc(NS(C)(=O)=O)cc2Cl)CCN1C1CCN(C(CO)c2ccc(Cl)cc2)CC1` (stereo partly drawn) [Compound 11], the IC50 is under 25 nM. Then `CSc1ccc(CN2CCC(N3C[C@H](C)N(c4ncc(Nc5c(NCC(F)(F)F)c(=O)c5=O)cc4Cl)C[C@H]3C)CC2)cc1` [Compound 121], with over 100 nM; and `C[C@@H]1CN(c2ncc(Nc3c(NCC(F)(F)F)c(=O)c3=O)cc2Cl)[C@@H](C)CN1C1CCN(Cc2ccc(-c3ccccc3)cc2)CC1` [Compound 135], with over 100 nM. For the molecule `CC[C@H]1CN(c2ncc(NC3=NS(=O)(=O)N=C3NC[C@H](C)O)cc2Cl)CCN1C1CCN(Cc2ccc(Cl)cc2F)CC1` [Compound 253], the IC50 was under 25 nM. For `C[C@H]1CN(c2ncc(-n3cccn3)cc2Cl)CCN1C1CCN(Cc2ccc(Cl)cc2F)CC1` [Compound 225], the IC50 was over 100 nM.

As for `C[C@H]1CN(c2ncc(NC(=O)c3ccc(Cl)cc3)cc2Cl)CCN1C1CCN(Cc2ccc(Cl)cc2)CC1` [Compound 200], the IC50 was over 100 nM.

With `CC[C@H]1CN(c2ncc(NC3=NS(=O)(=O)N=C3NCC(F)(F)F)cc2Cl)CCN1C1CCN(Cc2ccc(F)c(F)c2)CC1` [Compound 264], the IC50 was over 100 nM. The result for `CC[C@H]1CN(c2ncc(NS(N)(=O)=O)cc2Cl)CCN1C1CCN([C@H](C(=O)OC)c2ccc(Cl)cc2)CC1` [Compound 16] reads under 25 nM; that for `CC[C@H]1CN(c2ncc(Nc3c(NC4CC4)c(=O)c3=O)cc2Cl)CCN1C1CCN(Cc2ccc(C#N)cc2)CC1` [Compound 80], under 25 nM. Then `CC[C@H]1CN(c2ncc([N+](=O)[O-])cc2Cl)CCN1C1CCN(Cc2ccc(Cl)cc2-c2nnc[nH]2)CC1` [Compound 215], with over 100 nM. For `CC[C@H]1CN(c2ncc(Nc3c(NCC(=O)O)c(=O)c3=O)cc2Cl)CCN1C1CCN([C@H](CO)c2ccc(Cl)cc2)CC1` [Compound 129], the IC50 was over 100 nM. Then `CCC(=O)[C@@H](c1ccc(Cl)cc1)N1CCC(N2CCN(c3ncc(NS(N)(=O)=O)cc3Cl)C[C@@H]2CC)CC1` [Compound 41], with over 100 nM. Then `CC[C@H]1CN(c2ncc(NC3=NS(=O)(=O)N=C3NC3CC3)cc2Cl)CCN1C1CCN(Cc2ccc(C(F)(F)F)cc2)CC1` [Compound 245], with under 25 nM. Regarding `C[C@@H]1CN(C2CCN(Cc3ccc(Cl)cc3F)CC2)[C@@H](C)CN1c1ncc(N)cc1N` [Compound 233], the IC50 is over 100 nM. The result for `C[C@H]1CN(c2ncc(NN)cc2Cl)CCN1C1CCN(Cc2ccc(Cl)cc2F)CC1` [Compound 231] reads over 100 nM.

`CC[C@H]1CN(c2ncc(NS(=O)(=O)CC)cc2Cl)CCN1C1CCN(C(N)c2ccc(Cl)cc2F)CC1` (stereo partly drawn) [Compound 15]: the IC50 is under 25 nM. `C[C@@H]1CN(c2ncc(Nc3c(NCC(F)(F)F)c(=O)c3=O)cc2Cl)[C@@H](C)CN1C1CCN(C/C=C/c2ccccc2)CC1` [Compound 115]: the IC50 is over 100 nM. Then `CC[C@H]1CN(c2ncc(NC3=NS(=O)(=O)N=C3N3CCOCC3)cc2Cl)CCN1C1CCN(Cc2ccc(OC(F)(F)F)cc2)CC1` [Compound 261], with 25 to 100 nM; and `CC[C@H]1CN(c2ncc(Nc3c(NC4CC4)c(=O)c3=O)cc2Cl)CCN1C1CCN(C(=O)c2ccc(Cl)cc2)CC1` [Compound 102], with under 25 nM; and `CC[C@H]1CN(c2ncc(NS(C)(=O)=O)cc2Cl)CCN1C1CCN(Cc2ccc(O)cc2)CC1` [Compound 67], with over 100 nM.

Regarding `CC[C@H]1CN(c2ncc(NC(=O)C3CC3)cc2Cl)CCN1C1CCN(Cc2ccc(Cl)cc2F)CC1` [Compound 180], the IC50 is under 25 nM.

Regarding `CC[C@H]1CN(c2ncc(NC3=NS(=O)(=O)N=C3NC3CC3)cc2Cl)CCN1C1CCN([C@H](CO)c2ccc(Cl)cc2)CC1` [Compound 240], the IC50 is under 25 nM.

Consider `CC(=O)Nc1ccc(CN2CCC(N3C[C@H](C)N(c4ncc(Nc5c(NCC(F)(F)F)c(=O)c5=O)cc4Cl)C[C@H]3C)CC2)cc1` [Compound 147], for which the IC50 was over 100 nM.

On to `CC[C@H]1CN(c2ncc([N+](=O)[O-])cc2Cl)CCN1C1CCN([C@H](CO)c2ccc(Cl)cc2)CC1` [Compound 201], for which the IC50 was under 25 nM. Then `CC[C@H]1CN(c2ncc(NS(=O)(=O)N(C)C)cc2Cl)CCN1C1CCN(Cc2ccc(Cl)cc2F)CC1` [Compound 17], with under 25 nM; and `C[C@H]1CN(c2ncc(NC(=O)Nc3ccc(F)cc3)cc2Cl)CCN1C1CCN(Cc2ccc(Cl)cc2)CC1` [Compound 199], with over 100 nM.
